Assay [1] relates to J774.A1. Kind of assay: Antiinflammatory activity against mouse J774A.1 cells assessed as inhibition of LPS-stimulated TNFalpha release measured at 10 uM after 30 mins by ELISA relative to control. Type of assay: functional. The conditions noted are these: for inhibition at 10 µM: J774.A1, 0.5 h.
The test system of assay [2] is J774.A1. Put plainly: Antiinflammatory activity against mouse J774A.1 cells assessed as inhibition of LPS-stimulated IL6 release measured at 10 uM after 30 mins by ELISA relative to control. The conditions noted are these: for inhibition at 10 µM: J774.A1, 0.5 h. Type of assay: functional. A general note: An ELISA detects its analyte on a solid surface through an enzyme-linked reagent.

Each structure is given as a SMILES string. Calls of active or inactive are those of the source. The calls are words filed in the database; no cut-off is given here.

What is called inhibition is the change of the read-out against control, counted positive when it falls. With `COc1cc2ncnc(Oc3ccc(NC(=O)c4nn(-c5ccc(F)cc5)c(=O)cc4C)cc3)c2cc1OC`, the inhibition at 10 µM was found to be 70.1% in the assay with J774.A1 [1] and 20.6% in the assay with J774.A1 [2].
Turning to `COc1cc2nccc(Oc3ccc(NC(=O)c4nn(-c5ccccc5)c(=O)cc4C)cc3)c2cc1OC`, in the assay with J774.A1 [1], the inhibition at 10 µM amounted to 52%. Further, the inhibition result with J774.A1 [2] was “inactive”.
Regarding `CCc1ccccc1-n1nc(C(=O)Nc2cccc(Oc3ncnc4cc(OC)c(OC)cc34)c2)c(C)cc1=O`, the inhibition result with J774.A1 [1] and in the assay with J774.A1 [2] was “inactive” in each case.
In the case of `CCc1ccc(-n2nc(C(=O)Nc3cccc(Oc4ncnc5cc(OC)c(OC)cc45)c3)c(C)cc2=O)cc1`, the inhibition result in the assay on J774.A1 [1] is “inactive”. Besides, the inhibition at 10 µM in the assay on J774.A1 [2] was 39%.
For the compound `COc1cc2ncnc(Nc3ccc(F)c(OC(=O)c4nn(-c5ccc(F)cc5)c(=O)cc4C)c3)c2cc1OC`, the values for the inhibition at 10 µM in the assay on J774.A1 [1] and with J774.A1 [2] were 38.8% and 46.5%, respectively.
In the case of `CCc1ccccc1-n1nc(C(=O)Nc2ccc(Oc3ccnc4cc(OC)c(OC)cc34)cc2)c(C)cc1=O`, the inhibition at 10 µM came to 27.9% in the assay with J774.A1 [1] and 55.1% with J774.A1 [2].
In the case of `COc1cc2ncnc(Oc3cccc(NC(=O)c4nn(-c5ccc(F)cc5)c(=O)cc4C)c3)c2cc1OC`, the inhibition result with J774.A1 [1] is “inactive”. In addition, the inhibition at 10 µM in the assay on J774.A1 [2] was determined as 16.1%.
As to `COc1cc2ncnc(Nc3ccc(OC(=O)c4nn(-c5ccccc5)c(=O)cc4C)c(C)c3)c2cc1OC`, in the assay on J774.A1 [1], the inhibition entry was “inactive”. Further, the inhibition at 10 µM in the assay on J774.A1 [2] amounted to 23.9%.
Take `CCc1ccccc1-n1nc(C(=O)Oc2cc(Nc3ncnc4cc(OC)c(OC)cc34)ccc2F)c(C)cc1=O`: the inhibition entry in the assay with J774.A1 [1] and with J774.A1 [2] was “inactive” in each case.
In the case of `COc1ccc(-n2nc(C(=O)Oc3cc(Nc4ncnc5cc(OC)c(OC)cc45)ccc3F)c(C)cc2=O)cc1`, in the assay with J774.A1 [1], the inhibition entry was “inactive”. In addition, in the assay on J774.A1 [2], the inhibition at 10 µM came out at 31.9%.
`CCc1ccc(-n2nc(C(=O)Oc3cc(Nc4ncnc5cc(OC)c(OC)cc45)ccc3F)c(C)cc2=O)cc1`: the inhibition at 10 µM is 21.8% in the assay with J774.A1 [1] and 38.3% in the assay on J774.A1 [2].
For `COc1cc2nccc(Oc3cccc(NC(=O)c4nn(-c5ccc(F)cc5)c(=O)cc4C)c3)c2cc1OC`, in that order: 20.6% and 38%.
With `COc1ccc(-n2nc(C(=O)Nc3cccc(Oc4ncnc5cc(OC)c(OC)cc45)c3)c(C)cc2=O)cc1`, the inhibition entry in the assay with J774.A1 [1] was “inactive”. Moreover, in the assay on J774.A1 [2], the inhibition at 10 µM was 7.64%.
Turning to `COc1cc2ncnc(Oc3cccc(NC(=O)c4nn(-c5ccccc5)c(=O)cc4C)c3)c2cc1OC`, the inhibition result with J774.A1 [1] and with J774.A1 [2] was “inactive” throughout.
In the case of `COc1cc2nccc(Oc3ccc(NC(=O)c4nn(-c5ccc(F)cc5)c(=O)cc4C)cc3)c2cc1OC`, the inhibition result with J774.A1 [1] is “inactive”. Moreover, the inhibition at 10 µM with J774.A1 [2] came out at 5.11%.
Take `CCc1ccccc1-n1nc(C(=O)Nc2cccc(Oc3ccnc4cc(OC)c(OC)cc34)c2)c(C)cc1=O`: the inhibition at 10 µM amounted to 63.4% in the assay on J774.A1 [1] and 25.1% in the assay on J774.A1 [2].
Consider `CCc1ccc(-n2nc(C(=O)Nc3ccc(Oc4ccnc5cc(OC)c(OC)cc45)cc3)c(C)cc2=O)cc1`, for which the inhibition at 10 µM in the assay on J774.A1 [1] amounted to 61.9%; with J774.A1 [2] it was 34.9%.
Turning to `COc1cc2ncnc(Nc3ccc(F)c(OC(=O)c4nn(-c5ccc(C)cc5)c(=O)cc4C)c3)c2cc1OC`, the inhibition at 10 µM came out at 34.9% in the assay on J774.A1 [1] and 48% in the assay with J774.A1 [2].
As to `COc1cc2ncnc(Nc3ccc(C)c(OC(=O)c4nn(-c5ccccc5)c(=O)cc4C)c3)c2cc1OC`, in the assay with J774.A1 [1], the inhibition result is “inactive”. Also, the inhibition at 10 µM with J774.A1 [2] is 20.7%.
As to `COc1ccc(-n2nc(C(=O)Nc3ccc(Oc4ccnc5cc(OC)c(OC)cc45)cc3)c(C)cc2=O)cc1`, the inhibition at 10 µM in the assay on J774.A1 [1] was found to be 12.1%. Besides, the inhibition entry in the assay with J774.A1 [2] was “inactive”.
The like results for `COc1cc2nccc(Oc3cccc(NC(=O)c4nn(-c5ccccc5)c(=O)cc4C)c3)c2cc1OC` were, in that order, 0.35% and “inactive”.
With `COc1cc2ncnc(Oc3ccc(NC(=O)c4nn(-c5ccc(C)cc5)c(=O)cc4C)cc3)c2cc1OC`, the inhibition at 10 µM in the assay on J774.A1 [1] was 64%; with J774.A1 [2] it was 63%.
For the compound `COc1cc2ncnc(Nc3ccc(F)c(OC(=O)c4nn(-c5ccccc5)c(=O)cc4C)c3)c2cc1OC`, the inhibition at 10 µM in the assay with J774.A1 [1] came to 49.6%; in the assay on J774.A1 [2], 32.1%.
For the compound `COc1cc2ncnc(Oc3cccc(NC(=O)c4nn(-c5ccc(C)cc5)c(=O)cc4C)c3)c2cc1OC`, the inhibition result in the assay on J774.A1 [1] is “inactive”. In the assay on J774.A1 [2], the inhibition at 10 µM was found to be 47.3%.
With `COc1ccc(-n2nc(C(=O)Nc3cccc(Oc4ccnc5cc(OC)c(OC)cc45)c3)c(C)cc2=O)cc1`, the inhibition result in the assay on J774.A1 [1] and with J774.A1 [2] was “inactive” each time.
As to `COc1ccc(-n2nc(C(=O)Nc3ccc(Oc4ncnc5cc(OC)c(OC)cc45)cc3)c(C)cc2=O)cc1`, the inhibition at 10 µM in the assay on J774.A1 [1] turned out to be 57.5%. In addition, the inhibition entry in the assay on J774.A1 [2] is “inactive”.
With `COc1cc2ncnc(Oc3ccc(NC(=O)c4nn(-c5ccccc5)c(=O)cc4C)cc3)c2cc1OC`, the inhibition at 10 µM in the assay with J774.A1 [1] turned out to be 46.9%; in the assay with J774.A1 [2], 54.8%.
Take `CCc1ccccc1-n1nc(C(=O)Nc2ccc(Oc3ncnc4cc(OC)c(OC)cc34)cc2)c(C)cc1=O`: the inhibition at 10 µM came out at 58% with J774.A1 [1] and 18.4% with J774.A1 [2].
As to `COc1cc2nccc(Oc3cccc(NC(=O)c4nn(-c5ccc(C)cc5)c(=O)cc4C)c3)c2cc1OC`, the inhibition result in the assay with J774.A1 [1] and in the assay on J774.A1 [2] was “inactive” throughout.

These data come from ChEMBL document CHEMBL5321290, “Discovery of the Diphenyl 6-Oxo-1,6-dihydropyridazine-3-carboxylate/carboxamide Analogue J27 for the Treatment of Acute Lung Injury and Sepsis by Targeting JNK2 and Inhibiting the JNK2-NF-κB/MAPK Pathway” (J Med Chem, 2023).
